According to patent publication US20070179113A1, “GM-CSF gene therapy for Crohn's disease using an improved regulated expression system” (Schering Aktiengesellachaft, priority 2005, published 2007):

Legend:
Mx1 RNA = Mx1 RNA induction in PBMCs after bolus injection of mIFN-β protein; format: in vivo, C57BL/6 mice
Protocol: FIG. 6 illustrates Mx1 RNA induction following i.v. (A) or i.m. injection (B) of mIFN-β protein. C57BL/6 mice were administered 15, 150, or 500 ng of purified recombinant mIFN-β protein (specific activity-2.0×10^8 units/mg) by either i.v. (via tail vein) or i.m. injection (n=3 mice per group). At the specified time points post-injection mice were bled, and RNA was isolated from PBMCs. Mx1 RNA was measured by quantitative RT-PCR. The fold increase in Mx1 RNA is expressed relative to GAPDH values measured in the same samples. The controls include naive mice (N), and mice injected with the vehicle buffer only followed by Mx1 analysis at 2 hours (V2 h) or 4 h (V4 h) post-injection. Each column represents the mean value +/− standard deviation.
A quantitative PCR/RT-PCR assay was developed to quantitate the levels of Mx1 mRNA in murine PBMC's. Specifically, peripheral blood mononuclear cells (PBMCs) were isolated from mice treated with either mIFN-β protein or following gene-based delivery of the mIFN-β gene. Blood samples obtained from treated mice were centrifuged on a ficoll cushion for 25 minutes at 2,000 rpm. Purified PBMCs were pelleted and RNA for the Mx1 assay was purified using the “RNAeasy” mini extraction kit from Qiagen. The RNA was stored in H2O at −80° C. Mx1 RT-PCR was performed using TaqMan® chemistry and analysis was done on the Applied Biosystems (ABI) PRISM® 7700 Sequence Detection instrument. For reverse transcription of the RNA and amplification of cDNA, the “One-step TaqMan® RNA” kit from ABI was used. RNA was reverse transcribed for 30 minutes at 48° C. and the amplification was done in 40 cycles with a denaturation step at 95° C. for 30 seconds, and an annealing/elongation step at 60° C. for 1 minute. The samples were analyzed with an Mx1-specific probe/primer combination. Mx1 expression was normalized to GAPDH expression measured in parallel using a standard assay from ABI.
B. Bolus Injection of mIFN-β Protein Induces Transient Biomarker Response In Vivo: The biomarker response after bolus injection of purified recombinant mIFN-β was measured in these studies. […] The highest Mx1 expression levels were measured 2 hours after injection. […] At the 500 ng dose there was a diminished level of Mx1 RNA induction. This saturating effect has been observed in other studies in which high IFN-β levels lead to an apparent down-regulation of the bioresponse, perhaps due to down regulation of the IFN type I receptor (see e.g., Mager, D E and Jusko, W J (2002) Pharm Res 19:1537-43). Mx1 RNA expression in the i.v. injected mice also peaked at approximately 2 hours post-injection and dropped rapidly thereafter.
This is the first time that the expression of Mx1 RNA has been used as a biomarker to follow the activity of mIFN-β in mice. […] However, the upregulation is short term and rapidly drops from high expression levels to background within 12-24 hours.

JE = JE plasma level after bolus mIFN-β protein (ELISA); format: in vivo, C57BL/6 mice
Protocol: C57BL/6 mice were administered 15, 150, or 500 ng of purified recombinant mIFN-β protein (specific activity=2.0×10^8 units/mg) by either i.v. (via tail vein) or i.m. injection (n=3 mice per group). The mice were bled at 2, 4, 6, 12, 24, and 48 hours post-injection, and the plasma levels of IP-10 and JE were measured by ELISA (R&D Systems).

mIFN-β: purified recombinant murine interferon-beta protein expressed in 293E cells
induction of Mx1 RNA expression relative to vehicle injected mice (Mx1 RNA; 15, 150 or 500 ng, i.v. or i.m.): 25- to 50 fold | time within which Mx1 upregulation drops to background (Mx1 RNA; bolus protein): 12 to 24 h | time beyond which no Mx1 RNA levels above background were detected (Mx1 RNA; i.m.): ≤ 12 h | dose giving the highest Mx1 induction (Mx1 RNA; i.v.): 150 ng | time of peak Mx1 RNA expression post-injection (Mx1 RNA; i.v.): approximately 2 hours | time of highest Mx1 expression levels after injection (Mx1 RNA; i.v. or i.m.): 2 h | time by which plasma JE dropped to background (JE; each of three doses): ≤ 24 h | time of strong induction of JE after administration (JE; i.v. or i.m.): 2 h
